Patent US12539292B2, “BRM targeting compounds and associated methods of use” (Arvinas Operations, Inc., priority 2018, dated 2026)

Target: T1, BRM (Homo sapiens, UniProt P51531)
T1 construct: In-Cell Western Screen of BRM Degradation in SW1573 Cells; endogenous in cells; host or cells: SW1573
Test: In-cell Western screen of BRM degradation in SW1573 cells (Dmax and DC50)
Type: cell-based
Conditions: BRM degradation, SW1573 cells; for DC50: read-out: DC50; for Dmax: tested at the top concentration of between 0.3 and 10 μM, read-out: Dmax (%) (% degraded)
How it was run: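 BRM levels were read by LI-COR in-cell Western after two-channel (800/680 nm) immunostaining of fixed, Triton-permeabilised SW1573 cells.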

T1 sequence (P51531 whole entry): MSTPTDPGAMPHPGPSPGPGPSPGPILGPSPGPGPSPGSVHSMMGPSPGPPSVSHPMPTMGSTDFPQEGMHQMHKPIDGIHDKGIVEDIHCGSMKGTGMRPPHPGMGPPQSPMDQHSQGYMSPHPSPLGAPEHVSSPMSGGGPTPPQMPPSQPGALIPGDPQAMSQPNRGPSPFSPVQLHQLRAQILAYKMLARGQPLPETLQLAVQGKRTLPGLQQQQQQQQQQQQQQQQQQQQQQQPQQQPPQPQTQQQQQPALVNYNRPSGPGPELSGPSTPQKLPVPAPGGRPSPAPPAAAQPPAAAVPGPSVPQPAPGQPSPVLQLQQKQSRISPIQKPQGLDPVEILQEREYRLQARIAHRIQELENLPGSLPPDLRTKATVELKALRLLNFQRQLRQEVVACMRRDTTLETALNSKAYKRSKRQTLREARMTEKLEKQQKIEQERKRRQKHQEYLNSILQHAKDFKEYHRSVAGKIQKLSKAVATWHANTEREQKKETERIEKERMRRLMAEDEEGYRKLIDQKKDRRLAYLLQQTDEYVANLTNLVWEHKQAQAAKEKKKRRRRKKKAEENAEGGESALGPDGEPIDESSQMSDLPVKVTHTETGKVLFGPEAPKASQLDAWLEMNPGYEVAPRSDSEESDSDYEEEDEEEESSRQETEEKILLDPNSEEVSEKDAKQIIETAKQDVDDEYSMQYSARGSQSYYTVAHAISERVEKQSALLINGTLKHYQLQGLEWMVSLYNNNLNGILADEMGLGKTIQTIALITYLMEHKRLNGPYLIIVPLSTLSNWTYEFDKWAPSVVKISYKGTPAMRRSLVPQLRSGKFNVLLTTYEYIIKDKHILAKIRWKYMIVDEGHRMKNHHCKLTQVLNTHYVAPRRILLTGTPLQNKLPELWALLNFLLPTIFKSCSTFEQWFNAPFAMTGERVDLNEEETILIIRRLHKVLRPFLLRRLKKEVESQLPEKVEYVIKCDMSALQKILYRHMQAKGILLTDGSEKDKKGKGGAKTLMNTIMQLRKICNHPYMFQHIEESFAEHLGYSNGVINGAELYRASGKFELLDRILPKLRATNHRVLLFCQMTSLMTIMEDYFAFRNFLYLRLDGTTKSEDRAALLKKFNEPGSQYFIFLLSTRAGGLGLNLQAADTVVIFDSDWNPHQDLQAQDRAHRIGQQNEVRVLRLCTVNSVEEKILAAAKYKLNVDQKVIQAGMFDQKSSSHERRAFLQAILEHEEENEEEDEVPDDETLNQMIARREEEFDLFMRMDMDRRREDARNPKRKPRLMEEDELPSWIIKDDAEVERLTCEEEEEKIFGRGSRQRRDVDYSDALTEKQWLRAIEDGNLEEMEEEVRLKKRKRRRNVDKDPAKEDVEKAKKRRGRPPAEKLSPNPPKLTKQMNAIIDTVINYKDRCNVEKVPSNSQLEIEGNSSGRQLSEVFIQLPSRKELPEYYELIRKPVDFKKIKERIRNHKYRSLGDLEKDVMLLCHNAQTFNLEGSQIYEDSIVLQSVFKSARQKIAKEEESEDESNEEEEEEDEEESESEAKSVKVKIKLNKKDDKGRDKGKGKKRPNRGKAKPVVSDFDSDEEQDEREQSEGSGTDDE

| SMILES | DC50 [nM] | Dmax [%] |
| --- | --- | --- |
| COc1cc(C(C(=O)N2C[C@H](O)C[C@H]2C(=O)N[C@@H](C)c2ccc(-c3scnc3C)cc2)C(C)CC(=O)N(C)CCOc2cc(N3C4CCC3CN(c3cc(-c5ccccc5O)nnc3N)C4)ccn2)on1 (stereo partly drawn) [compound 289, (2S,4R)-1-(5-((2-((4-(3-(3-amino-6-(2-hydroxyphenyl)pyridazin-4-yl)-3,8-diazabicyclo[3.2.1]octan-8-yl)pyridin-2-yl)oxy)ethyl)(methyl)amino)-2-(3-methoxyisoxazol-5-yl)-3-methyl-5-oxopentanoyl)-4-hydroxy-N-((S)-1-(4-(4-methylthiazol-5-yl)phenyl)ethyl)pyrrolidine-2-carboxamide] | > 30 |  |
| Cc1ncsc1-c1ccc([C@H](CN)NC(=O)[C@@H]2C[C@@H](O)CN2C(=O)[C@H](c2cc(OCCN3CCN(CCOc4cc(N5C6CCC5CN(c5cc(-c7ccccc7O)nnc5N)C6)ccn4)CC3)no2)C(C)C)cc1 [compound 290, (2S,4R)-N-((R)-2-amino-1-(4-(4-methylthiazol-5-yl)phenyl)ethyl)-1-((2S)-2-(3-(2-(4-(2-((4-(3-(3-amino-6-(2-hydroxyphenyl)pyridazin-4-yl)-3,8-diazabicyclo[3.2.1]octan-8-yl)pyridin-2-yl)oxy)ethyl)piperazin-1-yl)ethoxy)isoxazol-5-yl)-3-methylbutanoyl)-4-hydroxypyrrolidine-2-carboxamide] | > 30 |  |
| Cc1ncsc1-c1ccc([C@H](COCC(C)C)NC(=O)[C@@H]2C[C@@H](O)CN2C(=O)[C@H](c2cc(OCCN3CCN(CCOc4cc(N5C6CCC5CN(c5cc(-c7ccccc7O)nnc5N)C6)ccn4)CC3)no2)C(C)C)cc1 [compound 291, (2S,4R)-1-((2S)-2-(3-(2-(4-(2-((4-(3-(3-amino-6-(2-hydroxyphenyl)pyridazin-4-yl)-3,8-diazabicyclo[3.2.1]octan-8-yl)pyridin-2-yl)oxy)ethyl)piperazin-1-yl)ethoxy)isoxazol-5-yl)-3-methylbutanoyl)-4-hydroxy-N-((R)-2-isobutoxy-1-(4-(4-methylthiazol-5-yl)phenyl)ethyl)pyrrolidine-2-carboxamide] | > 30 |  |
| CC(C)[C@H](C(=O)N1C[C@H](O)C[C@H]1C(=O)N[C@@H](C)c1ccc(-n2ccnn2)cc1)c1cc(OCCN2CCN(CCOc3cc(N4C5CCC4CN(c4cc(-c6ccccc6O)nnc4N)C5)ccn3)CC2)no1 [compound 292, (2S,4R)-N-((S)-1-(4-(1H-1,2,3-triazol-1-yl)phenyl)ethyl)-1-((2S)-2-(3-(2-(4-(2-((4-(3-(3-amino-6-(2-hydroxyphenyl)pyridazin-4-yl)-3,8-diazabicyclo[3.2.1]octan-8-yl)pyridin-2-yl)oxy)ethyl)piperazin-1-yl)ethoxy)isoxazol-5-yl)-3-methylbutanoyl)-4-hydroxypyrrolidine-2-carboxamide] | > 30 |  |
| CC(C)[C@@H](C(=O)N1C[C@H](O)C[C@H]1C(=O)N[C@@H](C)c1ccc(-n2ccnn2)cc1)c1cc(OCCN2CCN(CCOc3cc(N4C5CCC4CN(c4cc(-c6ccccc6O)nnc4N)C5)ccn3)CC2)no1 [compound 293, (2S,4R)-N-((S)-1-(4-(1H-1,2,3-triazol-1-yl)phenyl)ethyl)-1-((2R)-2-(3-(2-(4-(2-((4-(3-(3-amino-6-(2-hydroxyphenyl)pyridazin-4-yl)-3,8-diazabicyclo[3.2.1]octan-8-yl)pyridin-2-yl)oxy)ethyl)piperazin-1-yl)ethoxy)isoxazol-5-yl)-3-methylbutanoyl)-4-hydroxypyrrolidine-2-carboxamide] | 2.5 to 10 | > 75 |
| Cc1cnn(C)c1-c1ccc([C@H](C)NC(=O)[C@@H]2C[C@@H](O)CN2C(=O)[C@H](c2cc(OCCN3CCC(O[C@H]4C[C@H](Oc5cc(N6C7CCC6CN(c6cc(-c8ccccc8O)nnc6N)C7)ccn5)C4)CC3)no2)C(C)C)cc1 [compound 294, (2S,4R)-1-((2S)-2-(3-(2-(4-((1r,3S)-3-((4-(3-(3-amino-6-(2-hydroxyphenyl)pyridazin-4-yl)-3,8-diazabicyclo[3.2.1]octan-8-yl)pyridin-2-yl)oxy)cyclobutoxy)piperidin-1-yl)ethoxy)isoxazol-5-yl)-3-methylbutanoyl)-N-((S)-1-(4-(1,4-dimethyl-1H-pyrazol-5-yl)phenyl)ethyl)-4-hydroxypyrrolidine-2-carboxamide] | 2.5 to 10 | > 75 |
| Cc1cnn(C)c1-c1ccc([C@H](C)NC(=O)[C@@H]2C[C@@H](O)CN2C(=O)[C@@H](c2cc(OCCN3CCC(O[C@H]4C[C@H](Oc5cc(N6C7CCC6CN(c6cc(-c8ccccc8O)nnc6N)C7)ccn5)C4)CC3)no2)C(C)C)cc1 [compound 295, (2S,4R)-1-((2R)-2-(3-(2-(4-((1r,3R)-3-((4-(3-(3-amino-6-(2-hydroxyphenyl)pyridazin-4-yl)-3,8-diazabicyclo[3.2.1]octan-8-yl)pyridin-2-yl)oxy)cyclobutoxy)piperidin-1-yl)ethoxy)isoxazol-5-yl)-3-methylbutanoyl)-N-((S)-1-(4-(1,4-dimethyl-1H-pyrazol-5-yl)phenyl)ethyl)-4-hydroxypyrrolidine-2-carboxamide] | < 2.5 | > 75 |
| Cc1ncsc1-c1ccc([C@H](C)NC(=O)[C@@H]2C[C@@H](O)CN2C(=O)[C@@H](c2cc(OCCN3CCN(C[C@H]4C[C@H](Oc5cc(N6C7CCC6CN(c6cc(-c8ccccc8O)nnc6N)C7)ccn5)C4)C[C@@H]3C)no2)C(C)C)cn1 [compound 296, (2S,4R)-1-((2R)-2-(3-(2-((2S)-4-(((1r,3S)-3-((4-(3-(3-amino-6-(2-hydroxyphenyl)pyridazin-4-yl)-3,8-diazabicyclo[3.2.1]octan-8-yl)pyridin-2-yl)oxy)cyclobutyl)methyl)-2-methylpiperazin-1-yl)ethoxy)isoxazol-5-yl)-3-methylbutanoyl)-4-hydroxy-N-((S)-1-(6-(4-methylthiazol-5-yl)pyridin-3-yl)ethyl)pyrrolidine-2-carboxamide] | < 2.5 | > 75 |
| Cc1ncsc1-c1ccc([C@@H](COCC(C)C)NC(=O)[C@@H]2C[C@@H](O)CN2C(=O)[C@H](c2cc(OCCN3CCN(CCOc4cc(N5C6CCC5CN(c5cc(-c7ccccc7O)nnc5N)C6)ccn4)CC3)no2)C(C)C)cc1 [compound 297] | > 30 |  |
| Cc1ncsc1-c1ccc([C@@H](COCC(C)C)NC(=O)[C@@H]2C[C@@H](O)CN2C(=O)[C@@H](c2cc(OCCN3CCN(CCOc4cc(N5C6CCC5CN(c5cc(-c7ccccc7O)nnc5N)C6)ccn4)CC3)no2)C(C)C)cc1 [compound 298, (2S,4R)-1-((2R)-2-(3-(2-(4-(2-((4-(3-(3-amino-6-(2-hydroxyphenyl)pyridazin-4-yl)-3,8-diazabicyclo[3.2.1]octan-8-yl)pyridin-2-yl)oxy)ethyl)piperazin-1-yl)ethoxy)isoxazol-5-yl)-3-methylbutanoyl)-4-hydroxy-N-((S)-2-isobutoxy-1-(4-(4-methylthiazol-5-yl)phenyl)ethyl)pyrrolidine-2-carboxamide] | < 2.5 | > 75 |
| Cc1ncoc1-c1ccc([C@H](C)NC(=O)[C@@H]2C[C@@H](O)CN2C(=O)[C@H](c2cc(OCCN3CCN(CCOc4cc(N5C6CCC5CN(c5cc(-c7ccccc7O)nnc5N)C6)ccn4)CC3)no2)C(C)C)cc1 [compound 299, (2S,4R)-1-((2S)-2-(3-(2-(4-(2-((4-(3-(3-amino-6-(2-hydroxyphenyl)pyridazin-4-yl)-3,8-diazabicyclo[3.2.1]octan-8-yl)pyridin-2-yl)oxy)ethyl)piperazin-1-yl)ethoxy)isoxazol-5-yl)-3-methylbutanoyl)-4-hydroxy-N-((S)-1-(4-(4-methyloxazol-5-yl)phenyl)ethyl)pyrrolidine-2-carboxamide] | > 30 |  |
